Data on eight compounds can be found in patent publication US20030138864A1, “Method for identifying an enzyme to design anti-cancer compounds” (priority 2001, published 2003).

Type in all cases: cell-based
The subject of data set [1] is HCT116: human colon cancer cell line. Description: Growth inhibition (cytotoxicity, WST-8) of HCT116 cells expressing only a low level of microsomal dipeptidase. The method, then:
The activation of the compounds is mediated by microsomal dipeptidase. The inhibitory activities of the compounds is determined against growth of the cells expressing a low level of microsomal dipeptidase, those expressing a high level of microsomal dipeptidase, and granulocyte progenitors that are expanded ex vivo. […] A stable transfectant, HCT116/S5, into which the human microsomal dipeptidase cDNA (herafter called MDP) connected to the CMV promoter was transfected, is used as the cells expressing a high level of microsomal dipeptidase. […] HCT116, HCT116/S5, and granulocyte porogenitors are cultured in the absence and presence of the drugs. […] The IC50 values are determined and compared among HCT116, HCT116/S5, and granulocyte porogenitors.
Transfection of the DNA was carried out by using TransIT-LT2 (PanVera, Madison, USA, Calatog No. MIR2320) according to the manufacturer's instruction. […] The cells that grew in the presence of 1 mg/ml G418 were collected and cultivated in MaCoy5A medium.
By using 96-multi well plates, approximately 2×10^3 cells per well of the HCT116 bearing pRC/CMV and HCT116S5 carrying pRC/CMV-MDP were cultured in 200 μl of McCoy5A medium supplemented with 10% FBS in the presence or absence of the indicated concentrations of the drugs at 37° C. under 5% CO2 in humidified air. The cells were exposed to drugs for 24 hr (taxol, camptothecins and their prodrugs) or 96 hr (DMDC and its compounds). When the drug exposure time to the cells was 24 hr, culture medium containing drugs were removed, and the cells were washed and suspended in the fresh medium without drugs and further cultured at 37° C. under 5% CO2 in humidified air for the indicated days. […] To examine the effects of drugs on granulocyte progenitors, the granulocyte progenitors, which were expanded on a monolayer of MS-5 for 7 days, were collected and washed with RPMI1640 medium. Approximately 5000 cells were suspended in 200 μl of RPMI medium supplemented with 10% FBS and 50 ng/ml of G-CSF in the presence or absence of drugs and cultured in the presence of drugs for 24 hr (taxol, camptothecins and their prodrugs) or 7 days (DMDC and its prodrug) at 37° C. under 5% CO2 in humidified air. When the exposure time of drugs to the cells was 24 hr, the drugs were removed at 24 hr after addition of drugs by washing the cells with the above medium, and the cells were further cultured for 6 days in the same medium without drugs.
For orientation: Tetrazolium assays rely on reduction of a dye to a coloured formazan, in cell work by metabolically active cells.

Data set [2] relates to HCT116/S5: HCT116 transfected with the human microsomal dipeptidase cDNA. Description: Growth inhibition (cytotoxicity, WST-8) of HCT116/S5 cells expressing a high level of microsomal dipeptidase. The method, then: (§1) The activation of the compounds is mediated by microsomal dipeptidase. The inhibitory activities of the compounds is determined against growth of the cells expressing a low level of microsomal dipeptidase, those expressing a high level of microsomal dipeptidase, and granulocyte progenitors that are expanded ex vivo. The human colon cancer cell line, HCT116 (American Type Culture Collection No. CCL-247), and granulocyte progenitors are used as the cells expressing only a low level of microsomal dipeptidase. A stable transfectant, HCT116/S5, into which the human microsomal dipeptidase cDNA (herafter called MDP) connected to the CMV promoter was transfected, is used as the cells expressing a high level of microsomal dipeptidase. The dipeptidase cDNA (Satoh et al. Biotechnol. Prog. 10 (2), 134-140 (1994)) and other references) and the cloning procedures as mentioned are known in the art. HCT116, HCT116/S5, and granulocyte porogenitors are cultured in the absence and presence of the drugs. […] The IC50 values are determined and compared among HCT116, HCT116/S5, and granulocyte porogenitors. Although time duration of the exposure of the cells to the drugs varies depending on the cells and drugs, it can be 24 hr, 96 or 168 hr.
Transfection of the DNA was carried out by using TransIT-LT2 (PanVera, Madison, USA, Calatog No. MIR2320) according to the manufacturer's instruction. The resulting transfectants were cultivated in MaCoy5A medium (Sigma, St Louis, USA, Catalog No. M8403) supplemented with 10% (v/v) fetal bovine serum and 1 mg/ml of geneticin disulfate (Wako, Osaka, Japan, Catalog No. 535-24624). The cells that grew in the presence of 1 mg/ml G418 were collected and cultivated in MaCoy5A medium.
By using 96-multi well plates, approximately 2×10^3 cells per well of the HCT116 bearing pRC/CMV and HCT116S5 carrying pRC/CMV-MDP were cultured in 200 μl of McCoy5A medium supplemented with 10% FBS in the presence or absence of the indicated concentrations of the drugs at 37° C. under 5% CO2 in humidified air. The cells were exposed to drugs for 24 hr (taxol, camptothecins and their prodrugs) or 96 hr (DMDC and its compounds). When the drug exposure time to the cells was 24 hr, culture medium containing drugs were removed, and the cells were washed and suspended in the fresh medium without drugs and further cultured at 37° C. under 5% CO2 in humidified air for the indicated days. Then, 10 μl of WST-8 (Cell Counting Kit-8, Wako, Osaka, Japan, Catalog No.343-07623) were added to the cultures, and the cells were further incubated at 37° C. for 1 or 2 hr. Cell growth inhibition was calculated as IC50 values according to optical densities at 450 nm and at 655 nm. To examine the effects of drugs on granulocyte progenitors, the granulocyte progenitors, which were expanded on a monolayer of MS-5 for 7 days, were collected and washed with RPMI1640 medium. Approximately 5000 cells were suspended in 200 μl of RPMI medium supplemented with 10% FBS and 50 ng/ml of G-CSF in the presence or absence of drugs and cultured in the presence of drugs for 24 hr (taxol, camptothecins and their prodrugs) or 7 days (DMDC and its prodrug) at 37° C. under 5% CO2 in humidified air. When the exposure time of drugs to the cells was 24 hr, the drugs were removed at 24 hr after addition of drugs by washing the cells with the above medium, and the cells were further cultured for 6 days in the same medium without drugs. Therafter, 20 μl of WST-1 (Roche Diagnostics, Mannheim, Germany, Catalog No. 1644807) were added to the cultures, and the cells were further incubated at 37° C. for 6 hr. Cell growth inhibition was calculated as IC50 values according to optical densities at 450 nm and at 655 nm.

Data set [3] concerns CFU-GM: human bematopoietic progenitor cells. Description: Growth inhibition (cytotoxicity, WST-1) of granulocyte progenitors expanded ex vivo (CFU-GM). As to the method: as §1
CD34-positive mononuclear cells derived from the human umbilical cord blood and bone marrow (Veritas Co, Tokyo, Japan, Catalog No.CB009F, ABM019F) were cultured on a confluent monolayer of MS5 (Itoh, K., et al. Reproducible establishment of hematopoietic supportive stromal cells from murine bone marrow. Exp. Hematol. 17, 145-153 (1989)). Mouse stromal cell lines in alpha MEM medium (Life Technologies, Gaithersburg, USA, Catalog No.12571-0063) supplemented with 10% (v/v) horse serum (HS) (Stem Cell Technologies, Vancouver, Canada, Catalog No. 06750), 10% (v/v) fetal bovine serum (FBS) (Stem Cell Technologies, Vancouver, Canada, Catalog No.06450), 50 ng/ml Flt3 ligand (PeproTec EC., London, UK., Catalog No. 300-19), 100 ng/ml SCF (PeproTech EC, London, UK., Catalog No. 300-07), and 50 ng/ml TPO (PeproTech EC, London, England, Catalog No. 300-18) at 37° C. under 5% CO2 in humidified air. Floating hematopoietic cells were collected and stained by monoclonal antibodies against PerCP-anti-CD34 (BD pharMingen, San Diego, USA, Catalog No.340430), PE-anti-CD13 (BD pharMingen, San Diego, USA, Catalog No. 30525X) and FlTC-anti-15(BD pharMingen, SanDiego, USA, Catalog No. PM30525X). Five microlitter of each antibody was added to a […] of cell suspension and incubated at 4° C. for 25 min. After washing with PBS containing 10% (v/v) FCS, the expression of CD antigens were detected by using FACSCalibur (Becton Dickinson, Franklin Lakes, N.J., USA) according to the FACSCalibur Traing mannual (FACStation ver1.1. Becton Dickinson, Franklin Lakes, N.J., USA.). […]

Where [4] appears, read: drug exposure time, 24 hr, then drug removed and cells cultured further, read-out: Cytotoxicity (IC50 in nM) HCT116.
[5] abbreviates: drug exposure time, 24 hr, then drug removed and cells cultured further, read-out: Cytotoxicity (IC50 in nM) HCT116/S5.
[6] abbreviates: drug exposure time, 24 hr, then cultured for 6 days without drugs, read-out: Cytotoxicity (IC50 in nM) CFU-GM.

Counter-ions that a name gives are not always drawn. Like-named read-outs stand apart in the source and are kept apart here. Bounds are passed on as bounds.

As to `C=C1C(n2ccc(NC(=O)CC[C@@H](NC(=O)[C@@H](N)Cc3ccc(-c4ccccc4)cc3)C(=O)O)nc2=O)O[C@H](CO)[C@H]1O` (stereo partly shown) [Example 16], the IC50 was determined as 1.7 nM in data set [1] (drug exposure time, 96 hr, read-out: Cytotoxicity (IC50 in nM) HCT116); 0.23 nM in data set [2] (drug exposure time, 96 hr, read-out: Cytotoxicity (IC50 in nM) HCT116/S5); 2.8 nM in data set [3] (drug exposure time, 168 hr (7 days), read-out: Cytotoxicity (IC50 in nM) CFU-GM).

Regarding `C=C1C(n2ccc(NC(=O)CC[C@@H](NC(=O)[C@@H](N)Cc3ccc4ccccc4c3)C(=O)O)nc2=O)O[C@H](CO)[C@H]1O` (stereo partly drawn) [Example 17, (2R)-((2S)-Amino-3-naphthalen-2-ylpropionylamino)-4-[1-((4S)-hydroxy-(5R)-hydroxymethyl-3-methylenetetrahydrofuran-2-yl)-2-oxo-1,2-dihydropyrimidin-4-ylcarbamoyl]butyric acid], the IC50 in data set [1] turned out to be 0.99 nM; in data set [2] it was 0.098 nM; in data set [3], 1.1 nM.

Regarding `CC[C@@]1(OC(=O)CC[C@@H](NC(=O)[C@H](N)Cc2c[nH]c3ccccc23)C(=O)O)C(=O)OCc2c1cc1n(c2=O)Cc2cc3ccccc3nc2-1` [Example 31, 20-O—[(R)-tryptophyl-γ-(R)-glutamyl]-20(S)-camptothecin hydrochloride], the IC50 is 3 nM in data set [1] (setting [4]) and 18200 nM in data set [3].

With `CCc1c2c(nc3ccc(O)cc13)-c1cc3c(c(=O)n1C2)COC(=O)[C@@]3(CC)OC(=O)CC[C@@H](NC(=O)[C@@H](N)Cc1ccccc1)C(=O)O` [Example 39, 7-ethyl-10-hydroxy-20-O—[(S)-phenylalanyl-γ-(R)-glutamyl]-20(S)-camptothecin hydrochloride], the IC50 in data set [1] (setting [4]) amounted to 23 nM; in data set [2] (setting [5]) it was 2.8 nM; in data set [3] it was 20 nM.

Turning to `CCCCCN1C=Nc2cccc3nc4c(c1c23)Cn1c-4cc2c(c1=O)COC(=O)[C@@]2(CC)OC(=O)CC[C@H](NC(=O)[C@@H](N)Cc1c[nH]c2ccccc12)C(=O)O` [Example 49-1, (9S)-9-ethyl-9-[(L)-tryptophyl-(L)-γ-glutamyloxy]-1-pentyl-1H,12H-pyrano[3″,4″:6′,7′]indolizino[1′,2′:6,5]pyrido[4,3,2-de]quinazoline-10,13(9H,15H)-dione hydrochloride], the IC50 in data set [1] (setting [4]) came to 33 nM; in data set [2] (setting [5]), 3.3 nM; in data set [3] (setting [6]) it was 61 nM.

On to `CCCCCN1C=Nc2c3c(nc4cccc1c24)-c1cc2c(c(=O)n1C3)COC(=O)[C@@]2(CC)OC(=O)CC[C@@H](NC(=O)[C@@H](N)CC1CCCCC1)C(=O)O` [Example 49-2, (9S)-9-ethyl-9-[(L)-cyclohexylalanyl-(D)-γ-glutamyloxy]-1-pentyl-1H,12H-pyrano[3″,4″:6′,7′]indolizino[1′,2′:6,5]pyrido[4,3,2-de]quinazoline-10,13(9H,15H)-dione hydrochloride], for which the IC50 in data set [1] (setting [4]) stood at 18 nM; in data set [2] (setting [5]) it was 2.6 nM; in data set [3] (setting [6]), 31 nM.

Turning to `CCCCCN1C=Nc2cccc3nc4c(c1c23)Cn1c-4cc2c(c1=O)COC(=O)[C@@]2(CC)OC(=O)CC[C@@H](NC(=O)[C@@H](N)Cc1ccccc1)C(=O)O` [Example 49-3, (9S)-9-ethyl-9-[(L)-phenylalanyl-(D)-γ-glutamyloxy]-1-pentyl-1H,12H-pyrano[3″,4″:6′,7′]-indolizino[1′,2′:6,5]pyrido[4,3,2-de]quinazoline-10,13(9H,15H)-dione hydrochloride], the IC50 in data set [1] (setting [4]) is > 50 nM; in data set [2] (setting [5]), 2.9 nM; in data set [3] (setting [6]), 250 nM.

As to `CCCCCN1C=Nc2cccc3nc4c(c1c23)Cn1c-4cc2c(c1=O)COC(=O)[C@@]2(CC)OC(=O)CC[C@@H](NC(=O)[C@@H](N)CC(C)C)C(=O)O` [Example 49-4, (9S)-9-ethyl-9-[(L)-leucyl-(D)-γ-glutamyloxy]-1-pentyl-1H,12H-pyrano[3″,4″:6′,7′]-indolizino[1′,2′:6,5]pyrido[4,3,2-de]quinazoline-10,13(9H,15H)-dione hydrochloride], the results for the IC50 in data set [1] (setting [4]) and in data set [2] (setting [5]) were 15 nM and 2.1 nM, respectively.
